Assay results as given in patent publication US20240057592A1, “PESTICIDE COMPOSITIONS OF PHENOL AND RESORCINOL DIENES AND TRIENES” (METABOLIC INSIGHTS LTD., priority 2020, published 2024).

Key:
Rhizoctonia solani [1] = assay: Microplate based assay of bioactivity against Rhizoctonia solani; type: cell-based
From the text: • 1) Screen plate at 3 more dates: 3 d, 7 d, 14 d and 21 d following the assay start • 2) Calculate the difference of absorbance between each screen and the read at zero time • 3) Calculate the percentage of growth inhibition of each well at each time point. […]

Pythium aphanidermatum [2] = assay: Microplate based screening of bioactivity against Pythium aphanidermatum; type: cell-based
Method: The following Materials, methods and equipment were used: • Materials: SCH, PDBC, DMSO • Equipment: Plate reader, Centrifuge, Shaker, Incubator
• Grow Pythium aphanidermatum on SCH in 90 mm petri plates to get sporulating hyphae. […]
• 1) Read out the plate at 3 more dates: 3 d, 7 d, 14 d and 21 d following the assay start • 2) Calculate the difference of absorbance between each readout and the readout at zero time • 3) Calculate the percentage of growth inhibition of each well at each time point. […]

Pseudomonas syringae = assay: Microplate based screening of bioactivity against Pseudomonas syringae; type: cell-based
Method: • 1) Grow Pseudomonas on LBA plates at 28° C. for 2 days to get a single colony • 2) Transfer a single colony using a sterile toothpick into a 50 ml sterile tube containing 5 ml LB and grow for 24 at 28° C. and 150 RPM • 3) Chill the tube in the fridge for 1 h • 4) Add 7.5 ml of fridge cold, sterile, glycerol solution to the tube—to get 60% glycerol solution • 5) Mix well but gently to get perfect mixing—use vortex at 1000 RPM • 6) Aliquot 100 ul of bacteria suspension in 60% glycerol into 1.5 ml tubes—each aliquot should be enough for screening of 10 microplates • 7) Store the bacteria suspension in 60% glycerol at −20° C.
• 1) Take 1.5 ml tube with 100 ul frozen Pseudomonas suspension from the freezer and thaw it on ice • 2) Prepare in the hood 50 ml tubes with 40 ml fridge cold LB • 3) Mix 40 ul of bacteria suspension with 40 ml fridge cold LB in a 50 ml tube. This amount is enough for activity screening of 10 microplates • 4) Use this suspension for bioactivity screening experiments.
The bioactivity values are in % and reflect the potential of eradicating the target pests. Rules for Bioactivity Relative Value Calculation (Expressed in % from Maximal Value) • a. […] Pseudomonas syringae—activity grade (1/2/3)×repeats #X days of activity/168 (maximal value 3×4×14=168)*100

Pythium aphanidermatum [3] = assay: In-vivo validation under greenhouse conditions in cucumber seedlings infected with Pythium aphanidermatum; details: preventative treatment 24 h before inoculation, 7 d after inoculation, best of 9 experiments
Method: (§1) Formulation 3—Three types of stock solutions were used for final CART formulation preparation at 400 ppm: • (A) 0.1% CART solution in water+base (CART dissolved in water to 0.1% and sonicated for 10 mins at room temperature, then Na2CO3 25% stock was added to volume of 4% of the solution. The solution should be clear orange and at pH=8.0. The solution was sonicated for 20 minutes); • (B) 0.4% Xanthan Gum in water (w/w); • (C) 0.6% Silwet in water (w/w). The final formulation which was applied to cucumber seedlings composed of: 40% of stock solution A, 10% of stock solutions B and C, and 40% of water. The final formulation 3 was either applied as 400 ppm of diluted to the required concentrations and applied to cucumber seedlings. Formulation 4—Three types of stock solutions were used for final CART formulation preparation at 400 ppm: • (A) 10% CART in DMSO (CART dissolved in DMSO to 10% (w/w) and sonicated for 5 mins at room temperature); • (B) 0.4% Xanthan Gum in water (w/w); • (C) 0.6% Silwet in water (w/w). The final formulation which was applied to cucumber seedlings composed of: […], 10% of stock solutions B and C, and 76% of water. The final formulation 4 was either applied as 400 ppm of diluted to the required concentrations and applied to cucumber seedlings. […]
(§2) To evaluate the effect of a Cardol triene in infected plants compared to control plants (infected but not treated) the data was analyzed by Student's t-test and the p-value is calculated. […]
• General description: Pythium aphanidermatum disease severity development was evaluated following preventative treatment by Cardol triene (CART) […]

Rhizoctonia solani [4] = assay: In-vivo validation under greenhouse conditions in cucumber seedlings infected with Rhizoctonia solani; details: preventative treatment 24 h before inoculation, 7 d after inoculation, best of 9 experiments
Method: as §1, §2
• General description: Rhizoctonia disease severity were evaluated following preventative treatment with CART (Cardol triene). […]

[5] = 10 ul of 250 ppm solution + 40 ul inoculum, activity grade x repeats x days of activity/252*100, read to 21 d

## C=CC/C=C\C/C=C\CCCCCCCc1cc(O)cc(O)c1 [Cardol triene, 5-8Z,11Z,14-pentadecatrien-1-yl-1,3-benzenediol]
Rhizoctonia solani [1]; [5]
  Relative Activity value (%): 60%
Rhizoctonia solani [1]; summary statement
  pesticidal activity in words: effective pesticides
Pythium aphanidermatum [2]; [5]
  Relative Activity value (%): 100%
Pythium aphanidermatum [2]; summary statement
  pesticidal activity in words: effective pesticides
Pseudomonas syringae; 10 ul of 250 ppm solution + 40 ul inoculum, activity grade x repeats x days of activity/168*100
  Relative Activity value (%): 50%
Pseudomonas syringae; summary statement
  pesticidal activity in words: effective pesticides
Pythium aphanidermatum [3]; 100 ppm
  efficacy at preventing the plants death: up to 97.6%
Pythium aphanidermatum [3]; 200 ppm
  efficacy at preventing the plants death: up to 100%
Pythium aphanidermatum [3]; 400 ppm
  efficacy at preventing the plants death: up to 71.4%
Rhizoctonia solani [4]; 100 ppm
  efficacy at preventing the plants death: up to 81.2%
Rhizoctonia solani [4]; 200 ppm
  efficacy at preventing the plants death: up to 100%
Rhizoctonia solani [4]; 400 ppm
  efficacy at preventing the plants death: up to 98.4%
